Assay results as given in patent US10865176B2, “Small molecule modulators of microRNA-34a” (The Chinese University of Hong Kong, priority 2012, dated 2020).
Marks after values point to notes of the source that are not given here.

Assays:
miR-34a [1] = test: miR-34a reporter luciferase assay in Huh7 cells; assay type: cell-based, human
Experimental: The pMIR-REPORT™ luciferase plasmid (1 μg; Ambion) was sequentially double digested with Sac I and Hind III (10 units each, 50 μL reaction; NEB) and was gel purified. Double stranded insert DNA encoding the miR-34a binding site was synthesized through standard oligonucleotide synthesis methods. The sequences used were Forward: 5′z […]-3′ (SEQ ID NO:1) and Reverse: 5′: […]-3′ (SEQ ID NO:2). The insert was hybridized (heated to 95° C., and cooled to 4° C. over 30 min, then held at 4° C. for 60 min) and ligated with T4 ligase (200 units, 10 μL reaction, 1:10 vector/insert ratio; NEB) into the digested pMIR-REPORT™ luciferase vector. Positive colonies were selected by PCR colony screens, and the construction of the pMIR-REPORT™-miR-34a vector was confirmed by double enzyme digestion with NheI, MluI and Nhe I, Hind III (NEB). The luciferase reporter vector containing the miR-34a promoter was kindly provided by Prof. Mendell J T from Johns Hopkins University (21).
Huh7 cells were seeded into 96-well plates 12 h prior to transfection. MiR-34a reporter and the control vector were respectively co-transfected with Renilla luciferase pRL-SV40 into Huh7 cells. All transfections were performed in triplicate. The cells were incubated at 37° C. for 4 h followed by the replacement of transfection media with standard DMEM growth media with 10 μM of the natural products library (NPL) compounds (Tim Tec; 0.1% DMSO final concentration). This library contains 640 compounds including natural products and their derivatives. After 48 h of incubation, the media was removed and cells were lysed and the luciferase signals were measured by luciferase assay as described below.
MiR-34a reporter, the luciferase reporter vector containing miR-34a promoter and the control vectors were transfected into HCC cells 12 h before compound treatment. The Renilla luciferase vector pRL-SV40 was co-transfected as an internal control. HCC cells were then treated with compound for 48-72 h. The luciferase activity was measured by Dual Luciferase Reporter Assay (Promega) with a Wallac VICTOR^3V luminometer. The ratio of firefly luciferase to Renilla expression was calculated for each of the triplicates.

miR-34a [2] = test: qRT-PCR of primary and mature miR-34a in HCC cells; assay type: cell-based, human; conditions: for increased miR-34a level by Rubone after p53 knockdown: 2 μM siRNAs targeting p53, 10 μM Rubone; for primary and mature miR-34a levels: 10 μM, 48 h
Experimental: (§1) Total RNA from cell cultures and HCC xenograft tumors were extracted using Trizol (Invitrogen) according to manufacturer's protocols. Total RNAs were dissolved into nuclease-free ddH2O. For protein extraction, cells and HCC xenograft tumors were lysed in 1×RIPA buffer with 1 mM PMSF and 1× complete protease inhibitor cocktail (Roche, Indianapolis, Ind.). Both RNA and protein were stored at −80° C.
(§2) Total RNA was reversely transcribed into cDNAs using High Capacity cDNA Reverse Transcription Kit (Applied Biosystems, Foster city, CA, USA) and nude RT kit (Invitrogen) individually. qRT-PCR was performed using SYBR Green PCR master mix (TaKaRa, Dalian, China). GAPDH was used as an endogenous control. For measuring miR-34a expression level, qPCR was performed by using SYBR Green PCR master mixture (Invitrogen) and U6 was used as the internal control. All samples were normalized to internal controls and fold changes were calculated by relative quantification (2^−ΔΔct).

[3] = tested on: CDK6, FOXP, Notch1 and Sirtuin; test: Expression of other miR-34a targets by qRT-PCR in HCC cells; assay type: cell-based, human; conditions: 10 μM, 48 h
Experimental: as §1, §2

[4] = tested on: non-tumorigenic human hepatocyte cell line MIHA; test: MTT cell viability assay, MIHA; assay type: cell-based; conditions: different concentrations and time points
Experimental: Cell viability was measured by 3-(4,5-Dimethylthiazol-2-yl)-2,5-diphenyltetrazolium bromide (MTT) assay. 1×10^3 Cells were seeded in triplicate on a 96 well plate and were allowed to grow for indicated time points. At each time point a set of cells were incubated with 0.5 mg/ml MTT diluted in 1×PBS. After 2 to 4 h incubation, the MTT solution was removed. The insoluble MTT was dissolved in DMSO. Absorbance at 570 nm was measured by an ELISA plate reader.

HepG2 xenografted tumor = test: HepG2 xenografted nude mice model, tumor growth; assay type: in vivo; conditions: for Tumor growth inhibition (%) / Tumor weight (g): gavage once every two days; for Tumor growth inhibition (%): 24 d; for Tumor weight (g): day 24, mean (95% CI)
Experimental: (§3) Tumor volume was calculated as [(Length×Width×Height)[…]]. Treatment was continued for 24 d. Finally, all mice were sacrificed and tumors were excised. Tumor weight was recorded.

Cyclin D1 and Bcl-2 = test: qRT-PCR of Cyclin D1 and Bcl-2 in xenografted tumors; assay type: in vivo, nude mice; conditions: excised tumors after 24 d gavage
Experimental: as §1, §2, §3

[5] = tested on: human umbilical vein endothelial cells (HUVECs); test: In vitro tube formation assay; assay type: cell-based; conditions: ECM gel, 4 h
Experimental: The in vitro tube formation assay with human umbilical vein endothelial cells (HUVECs) was performed using the in vitro Angiogenesis Assay Kit (Cell Biolabs). HUVECs were plated at the density of 2×10^4/well and treated with Dimethyl sulfoxide (DMSO) or Rubone ([…] or 2 μM) respectively for 24 h. HUVECs were then seeded onto the ECM gel surface and cultured for 4 h. Then, 100 μl 1× Staining Solution was applied to each well and incubated 30 min at 37° C. and images were captured with an Olympus SC35 camera (Olympus America, Inc., Melville, N.Y.). Tube formation was quantified by counting the number of branching points on each image.

p53 [6] = test: ChIP assay, p53 occupancy on miR-34a promoter; assay type: cell-based, human; conditions: Bel-7404 cells, 10 μM
Experimental: ChIP assay was performed as described before (26). Cross-linked chromatin were incubated overnight with anti-H3 (Cat #: 9003, Cell Signaling Technology), IgG (Cat #: 9003, Cell Signaling Technology), p53 (Cat #: sc-106, Santa Cruz, Cambridge, Mass.). The precipitated DNA were quantitated absolutely by real-time PCR and normalized by respective 2% input.

p53 [7] = test: p53 expression by RT-PCR in HCC cells; assay type: cell-based, human; conditions: HepG2, Huh7 and Bel-7404 cells, 10 μM (FIG. 9A)
Experimental: as §2

[8] = HepG2 xenograft model, survival, body weight and side effects; conditions: for Body weight (g) initial / Body weight (g) end: mean (95% CI); for Body weight (g) end: end of 24 d treatment
Experimental: 5×10^6 HepG2 cells were suspended in 100 μl serum-free medium and subcutaneously (s.c.) inoculated into the dorsal flanks of nude mice. When tumors reached 5-10 mm in diameter, mice were randomly divided into 4 groups (n=5). […] Vehicle alone and Sorafenib were used as the negative and positive control respectively. Tumor volumes and body weight were measured once every two days. Tumor volume was calculated as [(Length×Width×Height)±2]. Treatment was continued for 24 d. Finally, all mice were sacrificed and tumors were excised. Tumor weight was recorded.

COc1cc(O)c(C(=O)/C=C/c2cc(OC)c(OC)cc2OC)c(OC)c1 [Rubone, 2′-Hydroxy-2,4,4′,5,6′-pentamethoxychalcone]
function as miR-34a activator, re-assayed in triplicate with miR-34a reporter system (miR-34a [1]): functions as the miR-34a activators are confirmed | IC50 (miR-34a [1]; Homo sapiens, Huh-7, 48 h): 3.8 µM | luciferase activities of miR-34a reporter (miR-34a [1]; indicated concentrations, 48 h): inhibited the luciferase activities in a dose-dependent manner | increased miR-34a level by Rubone after p53 knockdown (miR-34a [2]; Bel-7404 cells): significantly reversed by p53 knockdown | primary and mature miR-34a levels (miR-34a [2]; Hep3B cells (p53 deleted)): no change | primary and mature miR-34a levels (miR-34a [2]; HepG2 cells (wild-type p53)): significantly increased | increased miR-34a level by Rubone after p53 knockdown (miR-34a [2]; HepG2 cells): significantly reversed by p53 knockdown | primary and mature miR-34a levels (miR-34a [2]; Huh7 cells (mutant p53)): significantly increased | expression levels of CDK6, FOXP, Notch1 and Sirtuin ([3]; HepG2 cells): decreased | expression levels of CDK6, FOXP, Notch1 and Sirtuin ([3]; Huh7 cells): decreased | growth rate (MTT) [4]: little changes in the growth rate | Tumor growth inhibition (%) (HepG2 xenografted tumor; 20 mg/kg): 78.27% | Tumor weight (g) (HepG2 xenografted tumor; 20 mg/kg): 0.256 (95% CI = 0.08 − 0.42)** g | Tumor growth inhibition (%) (HepG2 xenografted tumor; 50 mg/kg): 89.64% | Tumor weight (g) (HepG2 xenografted tumor; 50 mg/kg): 0.122 (95% CI = 0.067 − 0.18)** # g | tumor growth inhibition compared with Sorafenib (HepG2 xenografted tumor; same dosage of 50 mg/kg, p=0.047 vs. sorafenib treated group): stronger tumor growth inhibition than Sorafenib | Cyclin D1 and Bcl-2 expression in xenografted tumors (Cyclin D1 and Bcl-2): down-regulated | tube score ([5]; 1 μM, control group 42.33, p=0.0036): 3.667 | tube formation ([5]; 2 μM): no tubes formed at all | p53 occupancy on miR-34a promoter (p53 [6]): significantly increased p53 occupancy | p53 expression (p53 [7]): not affected | Body weight (g) initial ([8]; 20 mg/kg group): 19.60(95% CI = 18.49 − 20.71)/ g | Body weight (g) end ([8]; 20 mg/kg): 23.60(95% CI = 21.93 − 25.27) g | Mice survival (n) initial/end ([8]; 20 mg/kg, gavage once every two days, 24 d): 5/5 | Body weight (g) initial ([8]; 50 mg/kg group): 20.00(95% CI = 20.00 − 20.00)/ g | Body weight (g) end ([8]; 50 mg/kg): 23.60(95% CI = 21.03 − 26.17) g | Mice survival (n) initial/end ([8]; 50 mg/kg, gavage once every two days, 24 d): 5/5 | side effect at the end of experiment ([8]; tumor bearing nude mice, gavage once every two days, 24 d): No obvious side effect
